Legend:
Assay in all cases: intact protein mass spectrometry
Type in all cases: binding
[1] = target: T1, BcGH76 (Niallia circulans, UniProt Q9Z4P9); details: probe:protein 10:1, 25 mM HEPES pH 7, 100 mM NaCl, 293 K, 22 h
T1 construct: gene aman6; recombinant GH76 endo-mannanase; borders and tags not given; R341Q crystallisation variant also used
Source text: (§1) intact protein mass spectrometry on BcGH76

[2] = target: T2, BcGH76 (Niallia circulans, UniProt Q9Z4P9, R341Q); details: covalent, probe:protein 10:1, 25 mM HEPES pH 7, 100 mM NaCl, 293 K
T2 construct: gene aman6; recombinant GH76 endo-mannanase; borders and tags not given; R341Q crystallisation variant also used
Source text: as §1

[3] = target: T3, BcGH76 (Niallia circulans, UniProt Q9Z4P9, D125N); details: probe:protein 10:1, 25 mM HEPES pH 7, 100 mM NaCl, 293 K
T3 construct: gene aman6; recombinant GH76 endo-mannanase; borders and tags not given; R341Q crystallisation variant also used
Source text: as §1

[4] = target: T4, BcGH76 (Niallia circulans, UniProt Q9Z4P9, D125N/R341Q); details: covalent, probe:protein 10:1, 25 mM HEPES pH 7, 100 mM NaCl, 293 K
T4 construct: gene aman6; recombinant GH76 endo-mannanase; borders and tags not given; R341Q crystallisation variant also used
Source text: as §1

T1 sequence (Q9Z4P9 entry or part of it): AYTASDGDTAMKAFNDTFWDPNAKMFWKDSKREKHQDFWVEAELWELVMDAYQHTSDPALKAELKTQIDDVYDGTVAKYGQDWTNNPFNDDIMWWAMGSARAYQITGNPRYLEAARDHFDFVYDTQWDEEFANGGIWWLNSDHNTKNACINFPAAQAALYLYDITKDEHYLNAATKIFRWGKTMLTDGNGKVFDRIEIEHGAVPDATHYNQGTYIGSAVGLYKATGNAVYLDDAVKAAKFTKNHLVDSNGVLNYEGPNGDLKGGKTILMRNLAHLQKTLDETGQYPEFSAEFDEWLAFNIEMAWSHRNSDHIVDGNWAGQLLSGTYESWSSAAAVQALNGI
T2 sequence (Q9Z4P9 entry or part of it R341Q): as the sequence (Q9Z4P9 entry or part of it) above, with R307Q counted along it
T4 sequence (Q9Z4P9 entry or part of it D125N/R341Q): as the sequence (Q9Z4P9 entry or part of it) above, with D91N, R307Q counted along it
T3 sequence (Q9Z4P9 entry or part of it D125N): as the sequence (Q9Z4P9 entry or part of it) above, with D91N counted along it

OC[C@H]1O[C@H](OC[C@@H]2[C@@H](O)[C@H](O)[C@H](O)[C@H]3O[C@@H]23)[C@@H](O)[C@@H](O)[C@@H]1O [compound 1, α‐1,6‐α‐manno‐cyclophellitol disaccharide 1]
covalent labelling [1]: 30% | 22 h incubation / 1 [2]: 30%

OC[C@H]1O[C@H](OC[C@H]2O[C@H](OC[C@@H]3[C@@H](O)[C@H](O)[C@H](O)[C@H]4O[C@@H]34)[C@@H](O)[C@@H](O)[C@@H]2O)[C@@H](O)[C@@H](O)[C@@H]1O [compound 2, trisaccharide 2]
covalent labelling [1]: 30% | 22 h incubation / 2 ([3]; covalent): 85% | 22 h incubation / 2 [4]: 85% | 16 h incubation / 2 ([2]; 22 h): 17%

OC[C@H]1O[C@H](OC[C@H]2C[C@H](OC[C@@H]3[C@@H](O)[C@H](O)[C@H](O)[C@H]4O[C@@H]34)[C@@H](O)[C@@H](O)[C@@H]2O)[C@@H](O)[C@@H](O)[C@@H]1O [compound 3, carba‐trisaccharide cyclophellitol 3]
percent covalent labelling [1]: 100% | covalent labelling of protein (%) ([3]; 22 h): 44% | 22 h incubation / 3 [4]: 45% | 16 h incubation / 3 ([2]; 22 h): 100%

Source: PMC8362039, “Development of Non‐Hydrolysable Oligosaccharide Activity‐Based Inactivators for Endoglycanases: A Case Study on α‐1,6 Mannanases” (Chemistry (Weinheim an Der Bergstrasse, Germany), 2021)
